From article PMC5218480 (PLoS ONE, 2017)

Test system: MV-4-11 cells
Assay: Gene expression microarray analysis (Affymetrix PrimeView) and GSEA
Type: cell-based, human
Design: RFU PODN (11730768_x_at) / Fold change /veh PODN (11730768_x_at) / RFU LINC00158 (11744669_a_at) / Fold change /veh LINC00158 (11744669_a_at) / RFU DUSP10 (11751237_a_at) / Fold change /veh DUSP10 (11751237_a_at) / RFU ID3 (11757404_x_at) / Fold change /veh ID3 (11757404_x_at) / RFU PLEKHG5 (11737974_s_at) / Fold change /veh PLEKHG5 (11737974_s_at) / RFU LRRC4B (11730491_at) / Fold change /veh LRRC4B (11730491_at) / RFU GIMAP4 (11747438_a_at) / Fold change /veh GIMAP4 (11747438_a_at) / RFU KRT8 (11758183_x_at) / Fold change /veh KRT8 (11758183_x_at) / RFU CNN1 (11734310_a_at) / Fold change /veh CNN1 (11734310_a_at) / RFU VPS37D (11726825_at) / Fold change /veh VPS37D (11726825_at) / RFU C10orf10 (11716522_x_at) / Fold change /veh C10orf10 (11716522_x_at) / RFU KIR2DL2 /// KIR2DL4 /// KIR2DL5A /// KIR2DL5B /// KIR2DS1 /// KIR2DS2 /// KIR2DS3 /// KIR2DS4 /// KIR3DL3 /// KIR3DL3 /// KIR3DS1 (11738374_at) / Fold change /veh KIR2DL2 /// KIR2DL4 /// KIR2DL5A /// KIR2DL5B /// KIR2DS1 /// KIR2DS2 /// KIR2DS3 /// KIR2DS4 /// KIR3DL3 /// KIR3DL3 /// KIR3DS1 (11738374_at) / RFU C1QL1 (11718748_at) / Fold change /veh C1QL1 (11718748_at) / RFU TMPRSS4 (11747572_a_at) / Fold change /veh TMPRSS4 (11747572_a_at) / RFU HAMP (11756126_x_at) / Fold change /veh HAMP (11756126_x_at) / RFU RNFT2 (11725882_a_at) / Fold change /veh RNFT2 (11725882_a_at) / RFU NR4A2 (11747474_a_at) / Fold change /veh NR4A2 (11747474_a_at) / RFU ABCC12 (11746883_a_at) / Fold change /veh ABCC12 (11746883_a_at) / RFU TMEM136 (11760407_x_at) / Fold change /veh TMEM136 (11760407_x_at) / RFU CLDN22 /// WWC2 (11732394_at) / Fold change /veh CLDN22 /// WWC2 (11732394_at) / RFU HLA-DPB1 (11760878_x_at) / Fold change /veh HLA-DPB1 (11760878_x_at) / RFU SPINT1 (11716480_a_at) / Fold change /veh SPINT1 (11716480_a_at) / RFU GAP43 (11754022_s_at) / Fold change /veh GAP43 (11754022_s_at) / RFU A4GNT (11735810_at) / Fold change /veh A4GNT (11735810_at) / RFU PRB3 (11715151_x_at) / Fold change /veh PRB3 (11715151_x_at) / RFU TUBB4B (11761932_at) / Fold change /veh TUBB4B (11761932_at) / RFU CAPN14 (11732068_a_at) / Fold change /veh CAPN14 (11732068_a_at) / RFU TMCC2 (11721928_a_at) / Fold change /veh TMCC2 (11721928_a_at) / RFU IRGQ (11745062_a_at) / Fold change /veh IRGQ (11745062_a_at) / RFU FAM174B (11720279_a_at) / Fold change /veh FAM174B (11720279_a_at) / RFU TMPRSS4 (11748680_a_at) / Fold change /veh TMPRSS4 (11748680_a_at) / RFU FAM212B (11763350_a_at) / Fold change /veh FAM212B (11763350_a_at) / RFU PLEKHG5 (11743358_a_at) / Fold change /veh PLEKHG5 (11743358_a_at) / RFU ZSCAN30 (11745921_a_at) / Fold change /veh ZSCAN30 (11745921_a_at) / RFU CMKLR1 (11741424_a_at) / Fold change /veh CMKLR1 (11741424_a_at) / RFU LOC101060620 /// MAPK8IP1 (11723275_at) / Fold change /veh LOC101060620 /// MAPK8IP1 (11723275_at) / RFU SPTSSB (11747773_x_at) / Fold change /veh SPTSSB (11747773_x_at) / RFU PRSS12 (11739890_at) / Fold change /veh PRSS12 (11739890_at) / RFU BIN1 (11741810_x_at) / Fold change /veh BIN1 (11741810_x_at) / RFU WNT11 (11732464_a_at) / Fold change /veh WNT11 (11732464_a_at) / RFU C10orf10 (11716521_a_at) / Fold change /veh C10orf10 (11716521_a_at) / RFU C5orf56 (11738089_at) / Fold change /veh C5orf56 (11738089_at) / RFU CYB561 (11721691_x_at) / Fold change /veh CYB561 (11721691_x_at) / RFU ANKRD19P (11752326_a_at) / Fold change /veh ANKRD19P (11752326_a_at) / RFU OR2T12 /// OR2T33 /// OR2T8 (11738714_s_at) / Fold change /veh OR2T12 /// OR2T33 /// OR2T8 (11738714_s_at) / RFU VCAN (11748164_a_at) / Fold change /veh VCAN (11748164_a_at) / RFU JSRP1 (11732532_at) / Fold change /veh JSRP1 (11732532_at) / RFU KRTAP10-11 (11738290_x_at) / Fold change /veh KRTAP10-11 (11738290_x_at) / RFU MYO3A (11730013_a_at) / Fold change /veh MYO3A (11730013_a_at) / RFU EBF3 (11725865_a_at) / Fold change /veh EBF3 (11725865_a_at) / RFU CAMK2N1 (11719241_x_at) / Fold change /veh CAMK2N1 (11719241_x_at) / RFU C5orf56 (11738088_a_at) / Fold change /veh C5orf56 (11738088_a_at) / RFU OLFML3 (11715873_a_at) / Fold change /veh OLFML3 (11715873_a_at) / RFU LOC100653217 /// NTM (11731650_a_at) / Fold change /veh LOC100653217 /// NTM (11731650_a_at) / RFU MAPK11 (11762145_a_at) / Fold change /veh MAPK11 (11762145_a_at) / RFU FIZ1 (11724087_x_at) / Fold change /veh FIZ1 (11724087_x_at) / RFU OASL (11726364_x_at) / Fold change /veh OASL (11726364_x_at) / RFU SOX15 (11748057_x_at) / Fold change /veh SOX15 (11748057_x_at) / RFU CD79A (11719716_a_at) / Fold change /veh CD79A (11719716_a_at) / RFU HIST1H1D (11736915_at) / Fold change /veh HIST1H1D (11736915_at) / RFU CASKIN2 (11723855_a_at) / Fold change /veh CASKIN2 (11723855_a_at) / RFU LOC730098 (11760151_x_at) / Fold change /veh LOC730098 (11760151_x_at) / RFU OR4N2 (11742367_at) / Fold change /veh OR4N2 (11742367_at) / RFU PRRT2 (11749266_a_at) / Fold change /veh PRRT2 (11749266_a_at) / RFU SNX32 (11753110_a_at) / Fold change /veh SNX32 (11753110_a_at) / RFU CDHR5 (11726645_a_at) / Fold change /veh CDHR5 (11726645_a_at) / RFU RCAN1 (11760418_a_at) / Fold change /veh RCAN1 (11760418_a_at) / RFU FAM167A (11723789_a_at) / Fold change /veh FAM167A (11723789_a_at) / RFU FAM26E (11764081_at) / Fold change /veh FAM26E (11764081_at) / RFU ISYNA1 (11749810_s_at) / Fold change /veh ISYNA1 (11749810_s_at) / RFU ACY1 (11761880_at) / Fold change /veh ACY1 (11761880_at) / RFU 11764098_at / Fold change /veh 11764098_at / RFU SAMD14 (11745864_x_at) / Fold change /veh SAMD14 (11745864_x_at) / RFU NPB (11741838_a_at) / Fold change /veh NPB (11741838_a_at) / RFU TMPRSS6 (11731388_a_at) / Fold change /veh TMPRSS6 (11731388_a_at) / RFU KRTAP10-2 (11738614_at) / Fold change /veh KRTAP10-2 (11738614_at) / RFU ARHGAP8 /// PRR5-ARHGAP8 (11727945_x_at) / Fold change /veh ARHGAP8 /// PRR5-ARHGAP8 (11727945_x_at) / RFU KRTAP5-7 /// NADSYN1 (11734609_at) / Fold change /veh KRTAP5-7 /// NADSYN1 (11734609_at) / RFU RASL12 (11751679_a_at) / Fold change /veh RASL12 (11751679_a_at) / RFU CDKN2B (11736163_a_at) / Fold change /veh CDKN2B (11736163_a_at) / RFU PRF1 (11729649_at) / Fold change /veh PRF1 (11729649_at) / RFU, ZNF638 /// ZNF638-IT1 / Fold change vs veh, ZNF638 /// ZNF638-IT1 / RFU, PANK3 / Fold change vs veh, PANK3 / RFU, SH3YL1 / Fold change vs veh, SH3YL1 / RFU, ZEB2 / Fold change vs veh, ZEB2 / RFU, NRIP1 / Fold change vs veh, NRIP1 / RFU, PTTG1IP / Fold change vs veh, PTTG1IP / RFU, CAPN2 / Fold change vs veh, CAPN2 / RFU, MED14 / Fold change vs veh, MED14 / RFU, SNORA58 / Fold change vs veh, SNORA58 / RFU, C1orf63 / Fold change vs veh, C1orf63 / RFU, LRRFIP1 / Fold change vs veh, LRRFIP1 / RFU, NDUFAF7 / Fold change vs veh, NDUFAF7 / RFU, SLC12A2 / Fold change vs veh, SLC12A2 / RFU, IBTK / Fold change vs veh, IBTK / RFU, ESF1 / Fold change vs veh, ESF1 / Fold change vs veh, TMEM50B / RFU, TAOK1 / Fold change vs veh, TAOK1 / RFU, ACBD3 / Fold change vs veh, ACBD3 / RFU, TMA16 / Fold change vs veh, TMA16 / RFU, RWDD3 / Fold change vs veh, RWDD3 / RFU, BCAT1 / Fold change vs veh, BCAT1 / RFU, EDEM3 / Fold change vs veh, EDEM3 / RFU, TMEM33 / Fold change vs veh, TMEM33 / RFU, WDR75 / Fold change vs veh, WDR75 / RFU, AHCTF1 / Fold change vs veh, AHCTF1 / RFU, TFRC / Fold change vs veh, TFRC / RFU, ZDHHC17 / Fold change vs veh, ZDHHC17 / RFU, NOM1 / Fold change vs veh, NOM1 / RFU, ARL8B / Fold change vs veh, ARL8B / RFU, ZBTB11 / Fold change vs veh, ZBTB11 / RFU, TAMM41 / Fold change vs veh, TAMM41 / RFU, KIAA1704 /// LOC100996395 / Fold change vs veh, KIAA1704 /// LOC100996395 / RFU, ING1 / Fold change vs veh, ING1 / RFU, TRMT61B / Fold change vs veh, TRMT61B / RFU, FUBP3 / Fold change vs veh, FUBP3 / RFU, TP53 / Fold change vs veh, TP53 / RFU, TNKS2 / Fold change vs veh, TNKS2 / RFU, ZFP14 / Fold change vs veh, ZFP14 / RFU, ACTR2 / Fold change vs veh, ACTR2 / RFU, PPP3R1 / Fold change vs veh, PPP3R1 / RFU, PIK3R1 / Fold change vs veh, PIK3R1 / RFU, HNRNPA1 / Fold change vs veh, HNRNPA1 / RFU, RNF170 / Fold change vs veh, RNF170 / RFU, ZNF28 / Fold change vs veh, ZNF28 / RFU, RNGTT / Fold change vs veh, RNGTT / RFU, OGT / Fold change vs veh, OGT / RFU, BRD1 / Fold change vs veh, BRD1 / RFU, MARS / Fold change vs veh, MARS / RFU, ZNF655 / Fold change vs veh, ZNF655 / RFU, FAHD1 / Fold change vs veh, FAHD1 / RFU, BDP1 / Fold change vs veh, BDP1 / RFU, LRRCC1 / Fold change vs veh, LRRCC1 / RFU, ARID1A / Fold change vs veh, ARID1A / RFU, ZNF146 / Fold change vs veh, ZNF146 / RFU, ZNF330 / Fold change vs veh, ZNF330 / RFU, GPN3 / Fold change vs veh, GPN3 / RFU, C9orf123 / Fold change vs veh, C9orf123 / RFU, N4BP2L2 / Fold change vs veh, N4BP2L2 / RFU, ARFIP1 / Fold change vs veh, ARFIP1 / RFU, FAM179B / Fold change vs veh, FAM179B / RFU, BCL10 / Fold change vs veh, BCL10 / RFU, UHRF1BP1L / Fold change vs veh, UHRF1BP1L / RFU, BET1 / Fold change vs veh, BET1 / RFU, CNOT2 / Fold change vs veh, CNOT2 / RFU, ZNF268 / Fold change vs veh, ZNF268 / Fold change vs veh, ZNF507 / RFU, DGCR2 / Fold change vs veh, DGCR2 / RFU, WDSUB1 / Fold change vs veh, WDSUB1 / Fold change vs veh, HSP90B1 /// MIR3652 / RFU, ADSS / Fold change vs veh, ADSS / RFU, GK / Fold change vs veh, GK / RFU, ZNF148 / Fold change vs veh, ZNF148 / RFU, TAF9 / Fold change vs veh, TAF9 / RFU, SLC1A5 / Fold change vs veh, SLC1A5 / RFU, SLMO2 / Fold change vs veh, SLMO2 / RFU, ABCC4 / Fold change vs veh, ABCC4 / RFU, LOC101060439 /// RAP1B / Fold change vs veh, LOC101060439 /// RAP1B / RFU, RFX7 / Fold change vs veh, RFX7 / RFU, GTPBP10 / Fold change vs veh, GTPBP10 / RFU, CNEP1R1 / Fold change vs veh, CNEP1R1 / RFU, BIVM-ERCC5 /// ERCC5 / Fold change vs veh, BIVM-ERCC5 /// ERCC5 / RFU, ILF3 / Fold change vs veh, ILF3 / RFU 11762660_at / Fold change /veh 11762660_at / RFU VCAN (11757783_s_at) / Fold change /veh VCAN (11757783_s_at) / RFU DDX43 (11728927_at) / Fold change /veh DDX43 (11728927_at) / RFU KRT8 (11758188_x_at) / Fold change /veh KRT8 (11758188_x_at) / RFU NKD1 (11759106_at) / Fold change /veh NKD1 (11759106_at) / RFU SRD5A1 (11742802_a_at) / Fold change /veh SRD5A1 (11742802_a_at) / RFU TPSAB1 /// TPSB2 (11721975_s_at) / Fold change /veh TPSAB1 /// TPSB2 (11721975_s_at) / RFU GSTM3 (11746129_a_at) / Fold change /veh GSTM3 (11746129_a_at) / RFU IL23R (11737362_x_at) / Fold change /veh IL23R (11737362_x_at) / RFU TMEM51 (11727254_a_at) / Fold change /veh TMEM51 (11727254_a_at) / RFU PIWIL2 (11732686_x_at) / Fold change /veh PIWIL2 (11732686_x_at) / RFU ORM1 (11744905_x_at) / Fold change /veh ORM1 (11744905_x_at) / RFU CCDC152 (11743942_at) / Fold change /veh CCDC152 (11743942_at) / RFU ECM1 (11717891_a_at) / Fold change /veh ECM1 (11717891_a_at) / RFU IL23R (11748794_a_at) / Fold change /veh IL23R (11748794_a_at) / RFU TNFAIP8L3 (11732012_x_at) / Fold change /veh TNFAIP8L3 (11732012_x_at) / RFU MBOAT4 (11741988_at) / Fold change /veh MBOAT4 (11741988_at) / RFU 11764193_at / Fold change /veh 11764193_at / RFU TMEM53 (11763286_at) / Fold change /veh TMEM53 (11763286_at) / RFU MAGEB2 (11727129_at) / Fold change /veh MAGEB2 (11727129_at) / RFU TMEM200A (11744735_a_at) / Fold change /veh TMEM200A (11744735_a_at) / RFU CCDC152 (11751479_a_at) / Fold change /veh CCDC152 (11751479_a_at) / RFU FAM211A (11726209_a_at) / Fold change /veh FAM211A (11726209_a_at) / RFU RGS16 (11746705_a_at) / Fold change /veh RGS16 (11746705_a_at) / RFU VCAN (11755009_s_at) / Fold change /veh VCAN (11755009_s_at) / RFU RHOB (11743442_s_at) / Fold change /veh RHOB (11743442_s_at) / RFU RGS16 (11720943_a_at) / Fold change /veh RGS16 (11720943_a_at) / RFU RGS16 (11720944_at) / Fold change /veh RGS16 (11720944_at) / RFU, VPS4B / Fold change vs veh, VPS4B / RFU, CREB1 / Fold change vs veh, CREB1 / RFU, DNAJC13 / Fold change vs veh, DNAJC13 / RFU, GNAQ / Fold change vs veh, GNAQ / RFU, CDK5R1 / Fold change vs veh, CDK5R1 / RFU, ZRANB3 / Fold change vs veh, ZRANB3 / RFU, CUL4A / Fold change vs veh, CUL4A / RFU, CCNY / Fold change vs veh, CCNY / RFU, UFL1 / Fold change vs veh, UFL1 / RFU, COG3 / Fold change vs veh, COG3 / RFU, DIAPH2 / Fold change vs veh, DIAPH2 / RFU, SKA2 / Fold change vs veh, SKA2 / RFU, AFF3 / Fold change vs veh, AFF3 / RFU, LMF1 / Fold change vs veh, LMF1 / RFU, IPO11 / Fold change vs veh, IPO11 / RFU, DFFB / Fold change vs veh, DFFB / RFU, FOXP1 / Fold change vs veh, FOXP1 / RFU, CARD8 / Fold change vs veh, CARD8 / RFU, STRN3 / Fold change vs veh, STRN3 / RFU, ADK / Fold change vs veh, ADK / RFU, RASSF2 / Fold change vs veh, RASSF2 / RFU, WIPF1 / Fold change vs veh, WIPF1 / RFU, LARP1B / Fold change vs veh, LARP1B / RFU, RASA1 / Fold change vs veh, RASA1 / RFU, RB1 / Fold change vs veh, RB1 / RFU, PPFIA1 / Fold change vs veh, PPFIA1 / RFU, MAT2A / Fold change vs veh, MAT2A / RFU, CCT5 / Fold change vs veh, CCT5 / RFU, WDR92 / Fold change vs veh, WDR92 / RFU, CUX1 / Fold change vs veh, CUX1 / RFU, TTC7A / Fold change vs veh, TTC7A / RFU, TMEM135 / Fold change vs veh, TMEM135 / RFU, DEPTOR / Fold change vs veh, DEPTOR / RFU, CPM / Fold change vs veh, CPM / RFU, DNAJB6 / Fold change vs veh, DNAJB6 / RFU, CACNA2D3 / Fold change vs veh, CACNA2D3 / RFU, DTX4 / Fold change vs veh, DTX4 / RFU, TFCP2 / Fold change vs veh, TFCP2 / RFU, GMCL1 /// GMCL1P1 / Fold change vs veh, GMCL1 /// GMCL1P1 / RFU, AEBP2 / Fold change vs veh, AEBP2 / RFU, SNHG1 /// SNORD22 /// SNORD25 /// SNORD26 /// SNORD27 /// SNORD28 /// SNORD29 /// SNORD31 / Fold change vs veh, SNHG1 /// SNORD22 /// SNORD25 /// SNORD26 /// SNORD27 /// SNORD28 /// SNORD29 /// SNORD31 / Fold change (Aza/veh), C12orf56 (ProbeSet 11735607_a_at) / Fold change (ACY-1035/veh), C12orf56 (ProbeSet 11735607_a_at) / Fold change (Aza/veh), FGFR1OP (ProbeSet 11751329_s_at) / Fold change (ACY-1035/veh), FGFR1OP (ProbeSet 11751329_s_at) / Fold change (Aza/veh), VPS36 (ProbeSet 11739960_a_at) / Fold change (ACY-1035/veh), VPS36 (ProbeSet 11739960_a_at) / RFU SYPL1 (11715823_x_at) / Fold change /veh SYPL1 (11715823_x_at) / RFU IGFBP7 (11715501_s_at) / Fold change /veh IGFBP7 (11715501_s_at) / RFU REEP3 (11722064_at) / Fold change /veh REEP3 (11722064_at) / RFU IGLL1 (11728026_x_at) / Fold change /veh IGLL1 (11728026_x_at): dose or concentration left out as unconfirmed
Settings: ProbeSet 11719817_x_at; LIST B

How did the “Fold change vs veh, BET1” value turn out when `Nc1ccc(-c2cccs2)cc1NC(=O)c1ccc2c(c1)cc(C1CC1)n2CCN1CCOCC1` [ACY-1035] was run?
The value was 0.95.
